Results reported in PMC12505902, “Inhibitors of trehalose-6-phosphate synthase activity in fungal pathogens compromise thermal tolerance pathways” (mBio, 2025).
Like-named read-outs stand apart in the source and are kept apart here.

What was measured:
C. albicans (SC5314) = test: MIC dose-response assay in YPD; type: cell-based
Method: We tested the effects of 4456dh on live cells by determining the minimal inhibitory concentration causing 80% growth reduction (MIC80). […] The MIC80 increased at 30°C to greater than 13 mM (Fig. S7A).
Fig 4 4456dh inhibits the growth of Candida and Cryptococcus species. […] 4456dh was administered at the concentrations indicated. Cultures were grown in YPD at the listed temperatures for 48 hours for Candida species and 72 hours for Cryptococcus species. Experimental temperatures reflect the temperatures at which the fungi experience heat stress. Left: relative growth of treated samples was calculated by averaging technical triplicates and normalizing the OD600 of each treated well to the average OD600 of the untreated WT controls, after the absorbance due to the compound was subtracted. The MIC80 values, calculated based on the OD600 values, are indicated in the white text on each heat map. Right: representative spot assays show the ability of cells to grow after exposure to 4456dh and indicate fungicidal activity of 4456dh. […]
102 determined by identifying the inflection point of the derivative data.
103 Tps1 Enzyme Activity Assay
104 The catalytic activity of C. albicans Tps1 and C. neoformans Tps1 was measured via a continuous
105 enzyme- coupled assay as previously reported ( 4) . […]
(§1) 110 bottomed 96-well microtiter plates and the decrease in absorbance at 340 nm during the initial
(§2) 111 reaction rate was recorded using a plate reader (Tecan). The decrease in absorbance was
(§3) 112 analyzed for the first 200s of the kinetic reaction. […]
(§4) 116 the overnight cultures was quantified by measuring the OD600 and corrected for the background
(§5) 117 absorbance of the medium. Antifungal potency for 4456dh was assessed by minimum inhibitory […]
(§6) 124 technical replicates. Growth, as determined by a reading of absorbance at 600 nm, was
(§7) 125 normalized to untreated controls and was corrected for the absorbance of 4456dh in the YPD […]
129 overnight cultures was quantified by measuring the OD600 and corrected for the background
130 absorbance of the medium. Antifungal potency for 4456dh was assessed by minimum inhibitory […]

C. auris (B11220) = test: MIC dose-response assay in YPD; type: cell-based; details: Candidozyma auris
Method: We tested the effects of 4456dh on live cells by determining the minimal inhibitory concentration causing 80% growth reduction (MIC80). Wild-type (WT) C. albicans and C. auris cells were incubated with 4456dh in yeast-peptone-dextrose (YPD) medium at 42°C and 39°C, respectively (Fig. 4A). […] 4456dh inhibited the growth of C. auris with an MIC80 of 7 mM at 39°C (Fig. 4A). The MIC80 increased at 30°C to greater than 13 mM (Fig. S7A).
Fig 4 4456dh inhibits the growth of Candida and Cryptococcus species. Two-fold dose response assays were performed against (A) C. albicans at 42°C and C. auris at 39°C, (B) C. glabrata at 42°C, and (C) C. neoformans, C. deneoformans, and C. gattii at 37°C. 4456dh was administered at the concentrations indicated. Cultures were grown in YPD at the listed temperatures for 48 hours for Candida species and 72 hours for Cryptococcus species. Experimental temperatures reflect the temperatures at which the fungi experience heat stress. Left: relative growth of treated samples was calculated by averaging technical triplicates and normalizing the OD600 of each treated well to the average OD600 of the untreated WT controls, after the absorbance due to the compound was subtracted. The MIC80 values, calculated based on the OD600 values, are indicated in the white text on each heat map. […]
102 determined by identifying the inflection point of the derivative data. […]
104 The catalytic activity of C. albicans Tps1 and C. neoformans Tps1 was measured via a continuous […]
as §1, §2, §3, §4, §5, §6, §7

## Cn1cc(-c2csc(NC(=O)Cc3ccccn3)n2)cn1 [Compound 4456dh]
C. albicans (SC5314); 30°C, YPD
  MIC80: no MIC was detected
C. albicans (SC5314); Candida albicans, SC5314, 42°C, YPD, 48 hours, read-out: MIC80
  MIC80: 13 mM
C. albicans (SC5314); Candida albicans, SC5314, Supplemental Table 5, This publication, read-out: MIC80
  MIC80: 5160 µg/mL
C. auris (B11220); 30°C, YPD
  MIC80: > 13 mM
C. auris (B11220); 39°C, YPD, 48 hours
  MIC80: 7 mM
C. auris (B11220); Supplemental Table 5, This publication
  MIC80: 2780 µg/mL
